This passage reports IC50, inhibition and Km results from ChEMBL document CHEMBL1150541, “Penem inhibitors of bacterial signal peptidase” (Bioorg Med Chem Lett, 1995).

Where a SMILES comes first, the peptide text is derived from it.

One assay concerns the target Signal peptidase I (Escherichia coli K-12, UniProt P00803). The assay is described as follows: Inhibitory activity against Escherichia coli leader peptidase using substrate A. The settings on record: read-out: I50.
Assay [1] deals with Signal peptidase I (Escherichia coli K-12) (UniProt P00803). The assay is described as follows: Inhibitory activity against Escherichia coli leader peptidase at a concentration of 100 uM.
Chain of Signal peptidase I (Escherichia coli K-12) (P00803 whole entry): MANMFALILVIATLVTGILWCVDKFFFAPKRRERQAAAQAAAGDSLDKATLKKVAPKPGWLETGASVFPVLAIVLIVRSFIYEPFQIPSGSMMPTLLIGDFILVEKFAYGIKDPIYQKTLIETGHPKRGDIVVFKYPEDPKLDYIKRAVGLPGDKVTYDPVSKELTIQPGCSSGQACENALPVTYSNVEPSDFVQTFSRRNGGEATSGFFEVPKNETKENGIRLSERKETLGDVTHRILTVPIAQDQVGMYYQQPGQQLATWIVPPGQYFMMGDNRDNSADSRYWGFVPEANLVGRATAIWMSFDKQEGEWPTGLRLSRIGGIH
A short description of assay [2]: Inhibitory activity against Escherichia coli leader peptidase using substrate B. The following applies: read-out: I50.
Assay [3] deals with Escherichia coli. The assay is described as follows: Compound was evaluated for Michaelis-Menten constant (Km).
The nature of assay [4]: Inhibitory activity against Escherichia coli leader peptidase using substrate A. The following applies: read-out: I50.
The test system of assay [5] is Escherichia coli. The following applies: 100 uM.

Chain of Signal peptidase I (P00803 whole entry): as above

With `COC(=O)c1cccc(COC(=O)C2=CSC3CC(=O)N23)c1` (stereo not drawn), the IC50 on Signal peptidase I is 8 µM. Besides, the inhibition (in general, the drop in the measured response relative to a control, in per cent) in assay [1] turned out to be 72%.

In assay [1], `CC(C)(C)NC(=O)C1=CSC2CC(=O)N12` (stereo not drawn) registered an inhibition of 0%.

Turning to `C=CCOC(=O)C1=CS[C@H]2[C@@H]([C@@H](C)OC(C)=O)C(=O)N12` [listing 1 of 3 here], the IC50 in assay [2] was determined as 70 nM; on Signal peptidase I, 0.85 µM.

For the molecule `CC[C@H](C)[C@H](NC(=O)[C@H](CCCCN)NC(=O)[C@H](C)NC(=O)[C@H](CC(C)C)NC(=O)[C@H](C)NC(=O)[C@H](CO)NC(=O)[C@H](C)NC(=O)[C@H](CO)NC(=O)[C@@H](N)Cc1c[nH]c2ccccc12)C(N)=O` (H-WSASALAKI-NH2), in the assay on Escherichia coli [3], the Km (in general, the substrate concentration at which the rate is half of its maximum) worked out at 300 µM.

Regarding `O=C(Nc1ccccc1)C1=CSC2CC(=O)N12` (stereo not drawn), the IC50 on Signal peptidase I was found to be 58 µM. For the same molecule, the inhibition in assay [1] turned out to be 86%.

As to `O=C(O)C1=CSC2CC(=O)N12` (stereo not drawn), at Signal peptidase I, the IC50 is 600 µM. Besides, the inhibition in assay [1] turned out to be 0%.

For the molecule `CN(Cc1ccccc1)C(=O)C1=CSC2CC(=O)N12` (stereo not drawn), the IC50 at Signal peptidase I is 50 µM. For the same molecule, the inhibition in assay [1] stood at 88%.

Consider `CCCCCCCCCCCCCCCCOC(=O)C1=CSC2CC(=O)N12` (stereo not drawn), for which the inhibition in assay [1] turned out to be 0%.

Turning to `O=C(C1=CSC2CC(=O)N12)N1CCOCC1` (stereo not drawn), the IC50 at Signal peptidase I amounted to 115 µM. In assay [1], the inhibition is 79%.

For the molecule `COCOC(=O)C1=CSC2CC(=O)N12` (stereo not drawn), the IC50 at Signal peptidase I was determined as 6 µM. The inhibition in assay [1] was determined as 100%.

In turn, `C=CCOC(=O)C1=CS[C@@H]2[C@@H]([C@H](C)OC(C)=O)C(=O)N12` showed an inhibition in assay [1] of 0%.

As for `O=C(C1=CSC2CC(=O)N12)N1CCCC1` (stereo not drawn), in assay [4], the IC50 amounted to 10 µM. Further, the inhibition in assay [1] came out at 93%.

As for `COC(=O)c1ccc(COC(=O)C2=CSC3CC(=O)N23)cc1` (stereo not drawn), the IC50 at Signal peptidase I came to 3 µM. In addition, in assay [1], the inhibition is 100%.

For `COc1ccc(COC(=O)C2=CSC3CC(=O)N23)cc1` (stereo not drawn), on Signal peptidase I, the IC50 worked out at 7 µM. Also, the inhibition in assay [1] was 100%.

Regarding `COc1ccc(NC(=O)C2=CSC3CC(=O)N23)cc1` (stereo not drawn), the IC50 at Signal peptidase I was 87 µM. Moreover, in assay [1], the inhibition was determined as 77%.

In the case of `C=CCOC(=O)C1=CSC2CC(=O)N12` (stereo not drawn), on Signal peptidase I, the IC50 stood at 10 µM. In assay [1], this molecule registered an inhibition of 93%.

For the molecule `C=CCOC(=O)C1=CS[C@H]2[C@@H]([C@H](C)OC(C)=O)C(=O)N12`, the inhibition in assay [1] came to 0%.

In turn, `C=CCOC(=O)C1=CS[C@@H]2[C@@H]([C@@H](C)OC(C)=O)C(=O)N12` gave an inhibition in assay [1] of 64%.

`C=CCOC(=O)C1=CS[C@@H]2[C@H]([C@H](C)OC(C)=O)C(=O)N12`: the inhibition in assay [1] stood at 20%.

Regarding `C=CCOC(=O)C1=CS[C@H]2[C@@H]([C@@H](C)OC(C)=O)C(=O)N12` [listing 2 of 3 here], the IC50 on Signal peptidase I was 1.8 µM.

Turning to `O=C(OCc1ccccc1)C1=CSC2CC(=O)N12` (stereo not drawn), the IC50 at Signal peptidase I came to 10 µM. This molecule also had an inhibition in the assay with Escherichia coli [5] of 100%.

Regarding `C=CCOC(=O)C1=CS[C@H]2[C@@H]([C@@H](C)OC(C)=O)C(=O)N12` [listing 3 of 3 here], in assay [1], the inhibition stood at 100%.

Regarding `O=C(OCCCCc1ccccc1)C1=CSC2CC(=O)N12` (stereo not drawn), on Signal peptidase I, the IC50 worked out at 13 µM. The same molecule had an inhibition in assay [1] of 83%.

For `O=C(OCc1ccc(C(=O)O)cc1)C1=CSC2CC(=O)N12` (stereo not drawn), the inhibition in assay [1] is 31%.

In the case of `O=C(OCc1ccc([N+](=O)[O-])cc1)C1=CSC2CC(=O)N12` (stereo not drawn), at Signal peptidase I, the IC50 was 50 µM. The molecule further displayed an inhibition in assay [1] of 85%.

For `CCCCCOC(=O)C1=CSC2CC(=O)N12` (stereo not drawn), the IC50 at Signal peptidase I turned out to be 21 µM. Further, the inhibition in assay [1] was determined as 100%.

For the molecule `CCN(CC)C(=O)C1=CSC2CC(=O)N12` (stereo not drawn), the IC50 on Signal peptidase I stood at 58 µM. The molecule further gave an inhibition in assay [1] of 86%.

Turning to `C=CCOC(=O)C1=CS[C@H]2[C@@H](CC)C(=O)N12`, the IC50 on Signal peptidase I worked out at 20 µM. The inhibition in assay [1] stood at 84%.

In turn, `O=C(OCc1ccccc1)C1=CS[C@@H]2CC(=O)N12` yielded an inhibition in assay [1] of 0%.

In assay [1], `C=CCOC(=O)C1=CS[C@@H]2[C@@H](CC)C(=O)N12` had an inhibition of 19%.

In the case of `O=C(OCc1ccccc1)C1=CS[C@H]2CC(=O)N12`, the IC50 on Signal peptidase I came to 3 µM. Also, in assay [1], the inhibition amounted to 100%.

As to `COC(=O)C1=CSC2CC(=O)N12` (stereo not drawn), the IC50 on Signal peptidase I is 4 µM. Besides, the inhibition in assay [1] is 100%.

For `C=CCOC(=O)C1=CS[C@H]2[C@@H]([C@@H](C)O)C(=O)N12`, the IC50 turned out to be 180 nM in assay [2] and 0.92 µM on Signal peptidase I. The molecule further gave an inhibition in assay [1] of 100%.

Molecule `COc1ccc(COC(=O)C2=CS[C@@H]3CC(=O)N23)cc1` returned an inhibition in assay [1] of 0%.

Regarding `CC[C@H](C)[C@H](NC(=O)[C@H](CCCCN)NC(=O)[C@H](C)NC(=O)[C@H](CC(C)C)NC(=O)[C@H](C)NC(=O)[C@H](CO)NC(=O)[C@H](C)NC(=O)[C@H](CO)NC(=O)[C@@H](N)Cc1ccccc1)C(N)=O` (H-FSASALAKI-NH2), the Michaelis constant (Km) with Escherichia coli [3] worked out at 1000 µM.

In turn, `O=C(NCc1ccccc1)C1=CSC2CC(=O)N12` (stereo not drawn) yielded an inhibition in assay [1] of 34%.
